According to patent US20040115289A1, “Cosmetic or medicinal composition containing sesquiterpene lactone or the like for treating hair -growth related disorders, and preparation method” (priority 2000, published 2004):

Assays:
[1] = system: hairs in the telogenic phase; assay: Test on the rabbit: hair growth after topical application; format: in vivo; conditions: 1% solution in the same excipient as the Arnica montana extract
Description: Male rabbits aged at least 12 weeks and identical in age, in order for the hairs of these animals to be in the telogenic phase, which can be confirmed by shearing the animals, are used.
The test products are dissolved in pure ethanol in the proportion of a concentration of 25% (w/v). This solution is then diluted 1/10 with sweet almond oil. A concentration of active product of 2.5% is then obtained.
0.2 ml of these solutions are deposited on a gauze applied to the skin and a control, obtained by preparing the same solvent as that which was used to dissolve the active principles, is also deposited. The products and the control are left in contact with the skin for 15 minutes and then the gauze is removed. The treatment is carried out for 2 days at the rate of three applications per day at intervals of four hours.
The difference between the mean time taken by the hairs to grow on the treated parts and the control parts is subsequently evaluated.
(§1) A solution comprising 1% of pure commercial parthenolide (Aldrich, ref. 38,428-3) and a solution comprising 1% of pure commercial cnicin (Extrasynthese, ref. 8725) are prepared in the same excipient as the Arnica montana extract and are subjected to the test on the rabbit.

hairs of C57/B16 mouse = assay: Tests on the C57/B16 mouse: hair growth after topical application; format: in vivo; conditions: section on the C57/B16 mouse; 1% solution in the same excipient as the Arnica montana extract
Description: Female mice aged 5 weeks, all identical, are used. The mice are […] on the back, so as to render the hairs unnoticeable.
0.2 ml of one of each product in the same solvent as for the test on the rabbits and at the same concentration is deposited on the backs of the mice.
A test is thus carried out by comparison between different mice, in contrast to the test on the rabbit, where the same animal represents its own control.
The product is deposited on the back, without using gauze, once daily for 5 days in a row. […] They become visible on the second day of treatment to reach approximately 1 mm from the third day, whereas the hairs begin to grow on the control mice only from the third week after the beginning of the treatment.
as §1

For C=C1C(=O)O[C@@H]2/C=C(\CO)CC/C=C(\C)C[C@H](OC(=O)C(=C)[C@@H](O)CO)[C@@H]12 [cnicin], the “growth of the hairs compared with the Arnica extract” value [1] was “approximately two times worse” and the “growth of the hairs compared with the 2.5% Arnica extract” value (hairs of C57/B16 mouse) was “approximately two times worse”.
